“And” between values parts separate entries of the source, which are not always exact repeats. Identical values can stand only once.
Test: Plasma levels of eprinomectin in cattle after topical pour-on administration (HPLC with fluorescence detection)
Conditions: for Plasma concentration of eprinomectin: 0.5 mg/kg bodyweight, individual animals
Method: Twenty beef cattle of mixed gender and aged approximately between 10-20 months at the time of selection were used to determine the levels of eprinomectin in plasma following topical administration of the composition set forth in Table 1 below at a dose rate of 0.5mg/kg of eprinomectin.
The composition was administered along the midline of the back in a narrow strip between the withers and the tailhead using 60 ml syringes graduated to 1 ml. […] Blood samples were collected from each animal by venipuncture from the jugular vein using suitably labelled 9ml heparinised vacutainers. Following collection, samples were placed on ice protected from light under black cover prior to centrifugation. After centrifugation at 4500 revolutions per minute (RPM) for 5 minutes, the plasma was subsampled into 3 amber cryovials (-1ml plasma/cryovial). Plasma samples were stored at <-20°C until assayed. All samples were assayed for the determination of eprinomectin content, measured as eprinomectin B 1 a (hereafter referred to as eprinomectin) by HPLC.

[1] = bovine, in vivo, topical or ocular, 0.5 mg/kg

AUC [1]: 7840 ± 2700 ng·h/mL
Cmax [1]: 45.5 ± 18.4 ng/mL
Tmax [1]: 96 h
concentration at 24 h (bovine, in vivo, topical or ocular, 0.5 mg/kg, mean plasma concentrations ± SD, cattle, topical, 24 hours, mean of all animals): 14.3 ± 5.09 ng/mL
concentration at 240 h (bovine, in vivo, topical or ocular, 0.5 mg/kg, mean plasma concentrations, cattle, topical, 240 hours post administration, mean ± SD): 15 ± 6.69 ng/mL
concentration at 408 h (bovine, in vivo, topical or ocular, 0.5 mg/kg, mean plasma concentrations, cattle, topical, 408 hours, mean ± SD): 2.9 ± 1.15 ng/mL
Plasma concentration of eprinomectin (cattle, topical, time point 0 hrs (pre-treatment)): <1.00 ng/mL
Structure (SMILES): CC[C@H](C)[C@H]1O[C@]2(C=C[C@@H]1C)C[C@@H]1C[C@@H](C/C=C(\C)[C@@H](O[C@H]3C[C@H](OC)[C@@H](O[C@H]4C[C@H](OC)[C@H](NC(C)=O)[C@H](C)O4)[C@H](C)O3)[C@@H](C)/C=C/C=C3\CO[C@@H]4[C@H](O)C(C)=C[C@@H](C(=O)O1)[C@]34O)O2 [eprinomectin]
Plasma concentration of eprinomectin (cattle, topical, time point 24 hrs, 0.5 mg/kg, 1440 min): 17.6 ng/mL and 16.9 ng/mL and 20.2 ng/mL and 10.2 ng/mL and 14.6 ng/mL and 6.61 ng/mL and 5.98 ng/mL
Plasma concentration of eprinomectin (cattle, topical, time point 48 hrs, 0.5 mg/kg, 2880 min): 24.7 ng/mL and 36.7 ng/mL and 27.7 ng/mL and 23.5 ng/mL and 26.7 ng/mL and 12.7 ng/mL and 8.29 ng/mL
Plasma concentration of eprinomectin (cattle, topical, time point 72 hrs, 0.5 mg/kg, 4320 min): 30.3 ng/mL and 49.8 ng/mL and 30.1 ng/mL and 39.1 ng/mL and 36.9 ng/mL and 17.4 ng/mL and 13.5 ng/mL
Plasma concentration of eprinomectin (cattle, topical, time point 96 hrs, 0.5 mg/kg, 5760 min): 32.2 ng/mL and 56.9 ng/mL and 36.1 ng/mL and 38.5 ng/mL and 45.3 ng/mL and 19.9 ng/mL
Plasma concentration of eprinomectin (cattle, topical, time point 120 hrs, 0.5 mg/kg, 7200 min): 24.8 ng/mL and 76.5 ng/mL and 27.0 ng/mL and 33.8 ng/mL and 44.7 ng/mL and 25.2 ng/mL
Plasma concentration of eprinomectin (cattle, topical, time point 144 hrs, 0.5 mg/kg, 8640 min): 20.5 ng/mL and 71.7 ng/mL and 24.5 ng/mL and 40.6 ng/mL and 44.7 ng/mL and 28.3 ng/mL
Plasma concentration of eprinomectin (cattle, topical, time point 192 hrs, 0.5 mg/kg, 11520 min): 10.8 ng/mL and 44.1 ng/mL and 15.8 ng/mL and 31.1 ng/mL and 38.1 ng/mL and 21.6 ng/mL
Plasma concentration of eprinomectin (cattle, topical, time point 216 hrs, 0.5 mg/kg, 12960 min): 9.41 ng/mL and 31.1 ng/mL and 13.4 ng/mL and 31.7 ng/mL and 31.2 ng/mL and 16.8 ng/mL and 14.4 ng/mL
Plasma concentration of eprinomectin (cattle, topical, time point 240 hrs, 0.5 mg/kg, 14400 min): 7.12 ng/mL and 21.7 ng/mL and 10.3 ng/mL and 29.2 ng/mL and 24.3 ng/mL and 13.3 ng/mL and 11.2 ng/mL
Plasma concentration of eprinomectin (cattle, topical, time point 312 hrs, 0.5 mg/kg, 18720 min): 4.14 ng/mL and 10.7 ng/mL and 4.53 ng/mL and 14.5 ng/mL and 10.3 ng/mL and 8.49 ng/mL and 3.76 ng/mL
Plasma concentration of eprinomectin (cattle, topical, time point 336 hrs, 0.5 mg/kg, 20160 min): 2.67 ng/mL and 6.98 ng/mL and 3.27 ng/mL and 10.8 ng/mL and 8.74 ng/mL and 7.94 ng/mL and 3.94 ng/mL
Plasma concentration of eprinomectin (cattle, topical, time point 360 hrs, 0.5 mg/kg, 21600 min): 1.90 ng/mL and 5.46 ng/mL and 2.21 ng/mL and 8.23 ng/mL and 7.19 ng/mL and 5.54 ng/mL and 3.37 ng/mL
Plasma concentration of eprinomectin (cattle, topical, time point 408 hrs, 0.5 mg/kg, 24480 min): 1.45 ng/mL and 2.79 ng/mL and 1.28 ng/mL and 4.89 ng/mL and 4.57 ng/mL and 4.06 ng/mL and 2.13 ng/mL
